The values below come from patent EP0888055B1, “HERBICIDAL COMPOSITION AND METHOD OF WEED CONTROL” (Novartis AG, priority 1996, dated 1997).

One assay deals with Maize. Description: Pre-emergence test (Example B2), tolerance of useful plant. In kind it is in vivo. The source says:
(§1) The test plants are sown in plastics pots in standard soil. Directly after sowing the test compounds are applied by spraying, separately or in admixture, in the form of an aqueous suspension of the test compounds (Formulation Example F8, c) and d)) or in the form of an emulsion concentrate (Formulation Example F1, d)) in 500 l of water/ha. The rates of application conform to the optimum concentrations ascertained under field conditions and greenhouse conditions. The test plants are then cultivated in the greenhouse under optimum conditions. After 34 days' (Tables B2 to B5) and 41 days' (Table B6) test duration, the test is evaluated (% action, 100 % = plants have died, 0 % = no phytotoxic action). From 61 to 80 % (especially from 81 to 100 %) phytotoxicity indicates good to very good herbicidal action in weeds; from 0 to 15 % (especially from 0 to 5 %) phytotoxicity indicates good to very good tolerance in useful plants.

In a further assay the test system is Euphorbia. In words: Pre-emergence test (Example B2). In kind it is in vivo.
From the text: (§2) The expected herbicidal action E for a given combination of two herbicides can be calculated as follows (see COLBY, S.R., "Calculating synergistic and antagonistic response of herbicide combinations", Weeds 15, pages 20-22, 1967): E = X +(Y • (100 - X))/(100) [formula]
(§3) In the above formula: X = percentage growth inhibition in the case of treatment with the compound of formula A at a rate of application of p kg per hectare compared with the untreated control (= 0 %). Y = percentage herbicidal action in the case of treatment with one of the mixing partners at a rate of application of q kg per hectare compared with the untreated control. E = Expected herbicidal action (percentage herbicidal action compared with the untreated control) after treatment with the compounds of formulae A and the mixing partners at a rate of application of p + q kg of active ingredient per hectare.
as §1
(§4) Test plants: abutilon, bidens, euphorbia, ipomoea, sesbamia, xanthium, rottboellia, sida, Sorghum bicolor.

The next assay relates to Ipomoea. In words: Pre-emergence test (Example B2). In kind it is in vivo.
From the text: as §2, §3, §1, §4

The test system of another assay is Rottboellia. In words: Pre-emergence test (Example B2). The class given is in vivo.
From the text: as §2, §3, §1, §4

The test system of another assay is Abutilon. Description: Pre-emergence test (Example B2). In kind it is in vivo.
From the text: as §2, §3, §1, §4

For another assay, the system named is Sida. In words: Pre-emergence test (Example B2). In kind it is in vivo.
From the text: as §2, §3, §1, §4

The test system of the next assay is Sorghum bic. Description: Pre-emergence test (Example B2). In kind it is in vivo, Sorghum bicolor. As to conditions: 1000 g active ingredient/ha, 41 days.
From the text: as §2, §3
The test plants are sown in plastics pots in standard soil. Directly after sowing the test compounds are applied by spraying, separately or in admixture, in the form of an aqueous suspension of the test compounds (Formulation Example F8, c) and d)) or in the form of an emulsion concentrate (Formulation Example F1, d)) in 500 l of water/ha. […] After 34 days' (Tables B2 to B5) and 41 days' (Table B6) test duration, the test is evaluated (% action, 100 % = plants have died, 0 % = no phytotoxic action). […]

Another assay has as its system Xanthium. Description: Pre-emergence test (Example B2). In kind it is in vivo. Particulars: 34 days.
From the text: as §2, §3, §1, §4

Assay [1] deals with Brachiaria. Description: Pre-emergence test (Example B2). The class given is in vivo. As to conditions: 34 days.
From the text: as §2, §3, §1

The test system of the next assay is Bidens. Description: Pre-emergence test (Example B2). The class given is in vivo. Particulars: 34 days.
From the text: as §2, §3, §1, §4

The subject of another assay is Sesbania. Description: Pre-emergence test (Example B2). In kind it is in vivo. Particulars: 34 days.
From the text: as §2, §3, §1, §4

Assay [2] deals with Brachiaria. In words: Post-emergence test (Example B1). Particulars: 24 days. In kind it is in vivo.
From the text: as §2, §3
(§5) The test plant seeds are grown to the 4- to 6-leaf stage under greenhouse conditions in plastics pots. The culture substrate used is a standard soil. At the 4- to 6-leaf stage the herbicides are applied separately and in admixture to the test plants. The test compounds are applied in the form of an aqueous suspension (Formulation Example F8, c)) in 500 l of water/ha. The rates of application conform to the optimum concentrations ascertained under field conditions and greenhouse conditions. Evaluation of the tests is carried out after 24 days. The following linear scale is used as a measure (% action): • 100 % = plants have died • 50 % = moderate action • 0 % = no phytotoxic action (as untreated control).
(§6) Test plants: brachiaria, cyperus, digitaria, echinochloa, panicum.

The test system of another assay is Digitaria. In words: Post-emergence test (Example B1). In kind it is in vivo. Particulars: 100 g active ingredient/ha, 24 days.
From the text: as §2, §3, §5, §6

The next assay concerns Echinochloa. Description: Post-emergence test (Example B1). As to conditions: 24 days. The class given is in vivo.
From the text: as §2, §3, §5, §6

The next assay deals with Panicum. Description: Post-emergence test (Example B1). Particulars: 100 g active ingredient/ha, 24 days. The class given is in vivo.
From the text: as §2, §3, §5, §6

[3] abbreviates: 125 g active ingredient/ha, 41 days.
The mark [4] stands for this setting: 250 g active ingredient/ha, 41 days.
The mark [5] stands for this setting: 500 g active ingredient/ha, 41 days.
[6] abbreviates: 1000 g active ingredient/ha, 41 days.
Setting [7] is: 150 g active ingredient/ha, 34 days.
Where [8] appears, read: 300 g active ingredient/ha, 34 days.
[9] abbreviates: 600 g active ingredient/ha, 34 days.
[10] abbreviates: 125 g active ingredient/ha, 34 days.
[11] abbreviates: 250 g active ingredient/ha, 34 days.
Where [12] appears, read: 500 g active ingredient/ha, 34 days.
Where [13] appears, read: 1000 g active ingredient/ha, 34 days.

As for `COCC(C)N(C(=O)CCl)c1c(C)csc1C` (stereo not drawn) [Dime, dimethenamid], the “Herbicidal activity, Useful plant: Maize” value in the assay on Maize (setting [3]) is reported as 0%; with Maize (setting [4]), 0%; in the assay on Maize (setting [5]), 0%; in the assay with Maize (setting [6]) it was 20%. In the assay with Euphorbia (setting [5]), the “Herbicidal activity, Weed: Euphorbia” value is reported as 30%. Also, the “Herbicidal activity, Weed: Ipomoea” value in the assay with Ipomoea (setting [6]) came out at 0%. In addition, the “Herbicidal activity, Weed: Rottboellia” value with Rottboellia (setting [3]) is on record as 20%. The “Herbicidal activity, Weed: Abutilon” value with Abutilon (setting [4]) stood at 10%. Moreover, the “Herbicidal activity, Weed: Sida” value in the assay on Sida (setting [4]) turned out to be 40%; with Sida (setting [5]) it was 85%; with Sida (setting [6]) it was 95%. Besides, the “Herbicidal activity, Weed: Sorghum bic.” value in the assay with Sorghum bic. is given as 80%.

As to `CCc1cccc(C)c1N(C(=O)CCl)[C@@H](C)COC` [Met-S, aRS,1'S(-)-N-(1'-methyl-2'-methoxyethyl)-N-chloroacetyl-2-ethyl-6-methylaniline], the figures for the “Herbicidal activity, Useful plant: Maize” value in the assay on Maize (setting [7]), in the assay on Maize (setting [8]) and in the assay on Maize (setting [9]) were 0%, 10% and 10%, respectively. Also, the “Herbicidal activity, Weed: Euphorbia” value in the assay with Euphorbia (setting [7]), with Euphorbia (setting [8]) and in the assay with Euphorbia (setting [9]) was 0% in each case. For the same compound, the “Herbicidal activity, Weed: Xanthium” value was 0% in the assay on Xanthium (300 g active ingredient/ha) and 20% in the assay with Xanthium (600 g active ingredient/ha). Moreover, the “Herbicidal activity, Weed: Abutilon” value was found to be 0% in the assay on Abutilon (setting [7]) and 10% in the assay on Abutilon (setting [8]). In addition, the figures for the “Herbicidal activity, Weed: Sida” value in the assay with Sida (setting [7]) and in the assay with Sida (setting [8]) were 0% and 40%, respectively. Also, the “Herbicidal activity, Weed: Brachiaria” value was 20% in the assay with Brachiaria [1] (150 g active ingredient/ha) and 50% with Brachiaria [1] (300 g active ingredient/ha).

On to `CCNc1nc(Cl)nc(NC(C)(C)C)n1` [Terb, terbuthylazine], for which the “Herbicidal activity, Useful plant: Maize” value with Maize (setting [10]), in the assay with Maize (setting [11]) and in the assay with Maize (setting [12]) was 0% throughout. The “Herbicidal activity, Weed: Bidens” value in the assay on Bidens (125 g active ingredient/ha) is given as 0%; with Bidens (250 g active ingredient/ha), 60%. Moreover, the “Herbicidal activity, Weed: Euphorbia” value with Euphorbia (setting [10]) worked out at 40%; in the assay with Euphorbia (setting [11]) it was 70%; with Euphorbia (setting [12]) it was 95%. Also, the “Herbicidal activity, Weed: Ipomoea” value came to 0% in the assay with Ipomoea (setting [10]) and 95% in the assay with Ipomoea (setting [12]). For the same compound, the “Herbicidal activity, Weed: Sesbania” value in the assay with Sesbania (250 g active ingredient/ha) was found to be 80%. Moreover, the results for the “Herbicidal activity, Weed: Abutilon” value in the assay on Abutilon (setting [11]) and with Abutilon (setting [12]) were 30% and 90%, respectively.

With `CCNc1nc(Cl)nc(NC(C)C)n1` [Atra, atrazine], the “Herbicidal activity, Useful plant: Maize” value in the assay on Maize (setting [10]), in the assay with Maize (setting [11]) and in the assay on Maize (setting [12]) was 0% each time. Besides, the “Herbicidal activity, Weed: Bidens” value with Bidens (125 g active ingredient/ha) is listed as 60%. The “Herbicidal activity, Weed: Euphorbia” value with Euphorbia (setting [10]) is given as 0%. For the same compound, the entries for the “Herbicidal activity, Weed: Xanthium” value in the assay on Xanthium (250 g active ingredient/ha) and in the assay on Xanthium (500 g active ingredient/ha) were 0% and 95%, respectively. Also, the “Herbicidal activity, Weed: Ipomoea” value with Ipomoea (setting [10]) was determined as 0%; in the assay with Ipomoea (setting [11]), 70%. In addition, the “Herbicidal activity, Weed: Abutilon” value with Abutilon (setting [10]) amounted to 0%; in the assay with Abutilon (setting [12]) it was 98%.

As to `O=C(O)CNCP(=O)(O)O` [Gly, glyphosate], the “Herbicidal activity, Weed: Brachiaria” value in the assay on Brachiaria [2] (200 g active ingredient/ha) was found to be 60%; with Brachiaria [2] (300 g active ingredient/ha) it was 70%; in the assay with Brachiaria [2] (400 g active ingredient/ha), 70%. In the assay on Digitaria, the “Herbicidal activity, Weed: Digitaria” value is listed as 25%. The “Herbicidal activity, Weed: Echinochloa” value in the assay on Echinochloa (200 g active ingredient/ha) came out at 0%; in the assay with Echinochloa (400 g active ingredient/ha), 20%. Moreover, in the assay with Panicum, the “Herbicidal activity, Weed: Panicum” value amounted to 70%.

Take `CCc1cccc(C)c1N(C(=O)CCl)C(C)COC` (racemic) [Met.rac., metolachlor]: the “Herbicidal activity, Useful plant: Maize” value with Maize (setting [11]), in the assay on Maize (setting [12]) and in the assay on Maize (setting [13]) was 0% each time. For the same compound, in the assay on Bidens (1000 g active ingredient/ha), the “Herbicidal activity, Weed: Bidens” value worked out at 30%. Moreover, in the assay on Euphorbia (setting [12]), the “Herbicidal activity, Weed: Euphorbia” value is listed as 0%. Further, the “Herbicidal activity, Weed: Ipomoea” value in the assay with Ipomoea (setting [13]) is recorded as 0%. In addition, the “Herbicidal activity, Weed: Rottboellia” value in the assay on Rottboellia (setting [13]) is 0%. Besides, in the assay with Sesbania (1000 g active ingredient/ha), the “Herbicidal activity, Weed: Sesbania” value came out at 60%. The “Herbicidal activity, Weed: Abutilon” value with Abutilon (setting [12]) and in the assay on Abutilon (setting [13]) was 20% throughout. The “Herbicidal activity, Weed: Sida” value worked out at 0% with Sida (setting [11]) and 50% in the assay with Sida (setting [12]).
